Source: patent US20170121322A1, “BET-PROTEIN INHIBITING 3,4-DIHYDROPYRIDO[2,3-B]PYRAZINONES WITH META-SUBSTITUTED AROMATIC AMINO- OR ETHER GROUPS” (Bayer Pharma Aktiengesellschaft, priority 2014, published 2017)

Assays:
[1] = molecular target: T1, BRD4 bromo domain 1 [BRD4(1)] (Homo sapiens, UniProt O60885); assay: BRD4(1)/acetylated peptide H4 TR-FRET binding assay; conditions: His6-BRD4(1) (aa 67-152) vs acetylated histone H4 peptide
T1 construct: N-terminally His6-tagged BRD4(1) (amino acids 67-152); made in house; host or cells: E. coli
Excerpt: To assess the BRD4(1) binding strength of the substances described in this application, the ability thereof to inhibit the interaction between BRD4(1) and acetylated histone H4 in a dose-dependent manner was quantified.
For this purpose, a time-resolved fluorescence resonance energy transfer (TR-FRET) assay was used, which measures the binding between N-terminally His6-tagged BRD4(1) (amino acids 67-152) and a synthetic acetylated histone H4 (Ac-H4) peptide with sequence GRGK(Ac)GGK(Ac)GLGK(Ac)GGAK(Ac)RHGSGSK-biotin. The recombinant BRD4(1) protein produced in-house according to Filippakopoulos et al., Cell, 2012, 149:214-231 was expressed in E. coli and purified by means of (Ni-NTA) affinity and (Sephadex G-75) size exclusion chromatography. The Ac-H4 peptide can be purchased, for example, from Biosyntan (Berlin, Germany).
In the assay, typically 11 different concentrations of each substance (0.1 nM, 0.33 nM, 1.1 nM, 3.8 nM, 13 nM, 44 nM, 0.15 μM, 0.51 μM, 1.7 μM, 5.9 μM and 20 μM) were analysed as duplicates on the same microtitre plate. For this purpose, 100-fold concentrated solutions in DMSO were prepared by serial dilutions (1:3.4) of a 2 mM stock solution into a clear, 384-well microtitre plate (Greiner Bio-One, Frickenhausen, Germany). From this, 50 nl were transferred into a black test plate (Greiner Bio-One, Frickenhausen, Germany). The test was started by the addition of 2 μl of a 2.5-fold concentrated BRD4(1) solution (final concentration typically 10 nM in the 5 μl of reaction volume) in aqueous assay buffer [50 mM HEPES pH 7.5, 50 mM sodium chloride (NaCl), 0.25 mM CHAPS and 0.05% serum albumin (BSA)] to the substances in the test plate. This was followed by a 10-minute incubation step at 22° C. for the pre-equilibration of putative complexes between BRD4(1) and the substances. Subsequently, 3 μl of a solution of 1.67 times the concentration (in assay buffer) consisting of Ac-H4 peptide (83.5 nM) and TR-FRET detection reagents [16.7 nM anti-6His-XL665 and 3.34 nM streptavidin cryptate (both from Cisbio Bioassays, Codolet, France), and 668 mM potassium fluoride (KF)] were added.
The mixture was then incubated in the dark at 22° C. for one hour and then at 4° C. for at least 3 hours and for no longer than overnight. The formation of BRD4(1)/Ac-H4 complexes was determined by the measurement of the resonance energy transfer from the streptavidin-Eu cryptate to the anti-6His-XL665 antibody present in the reaction. For this purpose, the fluorescence emission was measured at 620 nm and 665 nm after excitation at 330-350 nm in a TR-FRET measuring instrument, for example a Rubystar or Pherastar (both from BMG Lab Technologies, Offenburg, Germany) or a Viewlux (Perkin-Elmer). The ratio of the emissions at 665 nm and at 622 nm was taken as an indicator of the amount of BRD4(1)/Ac-H4 complexes formed.
The data (ratios) obtained were normalized, with 0% inhibition corresponding to the mean from the measurements for a set of controls (typically 32 data points) in which all the reagents were present. In these, in place of test substances, 50 nl of DMSO (100%) were used. Inhibition of 100% corresponded to the mean from the measurements for a set of controls (typically 32 data points) in which all the reagents except BRD4(1) were present. The IC50 was determined by regression analysis based on a 4-parameter equation (minimum, maximum, IC50, Hill; Y=Max+(Min−Max)/(1+(X/IC50)Hill).

CHL-1 cells = assay: Cell proliferation assay CHL-1 (alamarBlue); format: cell-based; conditions: Homo sapiens, melanoma (BRAF wild-type) cells, 96 hours
Method: (§1) In accordance with the invention, the ability of the substances to inhibit cell proliferation was determined. Cell viability was determined by means of the alamarBlue® reagent (Invitrogen) in a Victor X3 Multilabel Reader (Perkin Elmer). The excitation wavelength was 530 nm and the emission wavelength […].
The CHL-1 cells (ATCC, CRL-9446) were seeded at a concentration of 1000 cells/well in 100 μl of growth medium (DMEM with glutamine, 10% FCS) on 96-well microtitre plates.
(§2) After overnight incubation at 37° C., the fluorescence values (CI values) were determined. Then the plates were treated with various substance dilutions (1E-5 M, 3E-6 M, 1E-6 M, 3E-7 M, 1E-7 M, 3E-8 M, 1E-8 M) and incubated at 37° C. over 96 hours (MOLM-13, B16F10, CHL-1 cells) or 120 hours (MOLP-8 cells). Subsequently, the fluorescence values were determined (CO values). For the data analysis, the CI values were subtracted from the CO values and the results were compared between cells which had been treated with various dilutions of the substance or only with buffer solution. The IC50 values (substance concentration needed for 50% inhibition of cell proliferation) were calculated therefrom.
(§3) The substances were tested in the cell lines in Table 2, which represent the indications specified by way of example: […]

MOLM-13 cells = assay: Cell proliferation assay MOLM-13, method 1 (alamarBlue); format: cell-based; conditions: Homo sapiens, acute myeloid leukaemia cells, 4000 cells/well, 96-well, 96 hours
Method: as §1
The MOLM-13 cells (DSMZ, ACC 554) were seeded at a concentration of 4000 cells/well in 100 μl of growth medium (RPMI1640, 10% FCS) on 96-well microtitre plates (method 1).
as §2, §3

B16F10 cells = assay: Cell proliferation assay B16F10 (alamarBlue); format: cell-based; conditions: Mus musculus, B16-F10, melanoma (BRAF wild-type) cells, 96 hours
Method: as §1
The B16F10 cells (ATCC, CRL-6475) were seeded at a concentration of 300-500 cells/well in 100 μl of growth medium (DMEM with phenol red, 10% FCS) on 96-well microtitre plates.
as §2, §3

For `Cc1ccc(S(C)(=O)=O)cc1Nc1ccc2c(n1)N(C1CCOCC1)[C@H](C)C(=O)N2C` [Example 2, (3R)-1,3-Dimethyl-6-{[2-methyl-5-(methylsulphonyl)phenyl]amino}-4-(tetrahydro-2H-pyran-4-yl)-3,4-dihydropyrido[2,3-b]pyrazin-2(1H)-one], the IC50 [1] was 83 nM, the IC50 (CHL-1 cells) was 189 nM and the IC50 (MOLM-13 cells) was 238 nM. It also gave an IC50 (B16F10 cells) of 319 nM.

Compound `COc1ccc(S(=O)(=O)C(C)C)cc1Nc1ccc2c(n1)N(C(C)C)[C@H](C)C(=O)N2C` [Example 16, (3R)-4-Isopropyl-6-{[5-(isopropylsulphonyl)-2-methoxyphenyl]amino}-1,3-dimethyl-3,4-dihydropyrido[2,3-b]pyrazin-2(1H)-one] has an IC50 [1] of 88 nM, an IC50 (CHL-1 cells) of 76 nM and an IC50 (MOLM-13 cells) of 184 nM. The IC50 (B16F10 cells) was 180 nM.

`CC(C)S(=O)(=O)c1ccc(OC(F)(F)F)c(Nc2ccc3c(n2)N(C2CCN(C)CC2)[C@H](C)C(=O)N3C)c1` [Example 20, (3R)-6-{[5-(Isopropylsulphonyl)-2-(trifluoromethoxy)phenyl]amino}-1,3-dimethyl-4-(1-methylpiperidin-4-yl)-3,4-dihydropyrido[2,3-b]pyrazin-2(1H)-one] was tested, and the IC50 [1] was 18 nM, the IC50 (CHL-1 cells) was 20 nM and the IC50 (MOLM-13 cells) was 19 nM. The IC50 (B16F10 cells) was 49 nM.

In the case of `C[C@@H]1C(=O)N(C)c2ccc(Nc3ccc4c(c3)S(=O)(=O)CC4)nc2N1C1CCOCC1` [Example 4, (3R)-6-[(1,1-Dioxido-2,3-dihydro-1-benzothiophen-6-yl)amino]-1,3-dimethyl-4-(tetrahydro-2H-pyran-4-yl)-3,4-dihydropyrido[2,3-b]pyrazin-2(1H)-one], the IC50 [1] is reported as 93 nM, the IC50 (CHL-1 cells) is reported as 196 nM and the IC50 (MOLM-13 cells) is reported as 289 nM. The IC50 (B16F10 cells) was 375 nM.

`C[C@@H]1C(=O)N(C)c2ccc(Nc3cccc(C(F)(F)F)c3)nc2N1C1CCOCC1` [Example 43, (3R)-1,3-Dimethyl-4-(tetrahydro-2H-pyran-4-yl)-6-{[3-(trifluoromethyl)phenyl]amino}-3,4-dihydropyrido[2,3-b]pyrazin-2(1H)-one] was tested, and the IC50 [1] was 321 nM, the IC50 (CHL-1 cells) was 707 nM and the IC50 (MOLM-13 cells) was 1220 nM. The IC50 (B16F10 cells) was 1080 nM.

`COc1ccc(S(C)(=O)=O)cc1Nc1ccc2c(n1)N(C1CCOCC1)[C@H](C)C(=O)N2C` [Example 3, (3R)-6-{[2-Methoxy-5-(methylsulphonyl)phenyl]amino}-1,3-dimethyl-4-(tetrahydro-2H-pyran-4-yl)-3,4-dihydropyrido[2,3-b]pyrazin-2(1H)-one] gave an IC50 [1] of 79 nM, an IC50 (CHL-1 cells) of 127 nM and an IC50 (MOLM-13 cells) of 175 nM. It also gave an IC50 (B16F10 cells) of 199 nM.

Work on `CC(C)S(=O)(=O)c1cccc(Nc2ccc3c(n2)N(C2CCN(C)CC2)[C@H](C)C(=O)N3C)c1` [Example 19, (3R)-6-{[3-(Isopropylsulphonyl)phenyl]amino}-1,3-dimethyl-4-(1-methylpiperidin-4-yl)-3,4-dihydropyrido[2,3-b]pyrazin-2(1H)-one] yielded an IC50 [1] of 15 nM, an IC50 (CHL-1 cells) of 17 nM and an IC50 (MOLM-13 cells) of 13 nM. For the same compound, the IC50 (B16F10 cells) was 45 nM.

For `COc1ccc(S(=O)(=O)C2CCC2)cc1Nc1ccc2c(n1)N(C1CCOCC1)[C@H](C)C(=O)N2C` [Example 35, (3R)-6-{[5-(Cyclobutylsulphonyl)-2-methoxyphenyl]amino}-1,3-dimethyl-4-(tetrahydro-2H-pyran-4-yl)-3,4-dihydropyrido[2,3-b]pyrazin-2(1H)-one], the IC50 [1] was 32 nM, the IC50 (CHL-1 cells) was 10 nM and the IC50 (MOLM-13 cells) was 12 nM. The IC50 (B16F10 cells) was 16 nM.

Compound `C[C@@H]1C(=O)N(C)c2ccc(Nc3cccc(S(=O)(=O)C4CC4)c3)nc2N1C1CCOCC1` [Example 6, (3R)-6-{[3-(Cyclopropylsulphonyl)phenyl]amino}-1,3-dimethyl-4-(tetrahydro-2H-pyran-4-yl)-3,4-dihydropyrido[2,3-b]pyrazin-2(1H)-one] has an IC50 [1] of 24 nM, an IC50 (CHL-1 cells) of 46 nM and an IC50 (MOLM-13 cells) of 89 nM. For the same compound, the IC50 (B16F10 cells) was 87 nM.

Work on `COc1ccc(S(=O)(=O)C(C)C)cc1Nc1ccc2c(n1)N(C1CCNCC1)[C@H](C)C(=O)N2C` [Example 26, (3R)-6-{[5-(Isopropylsulphonyl)-2-methoxyphenyl]amino}-1,3-dimethyl-4-(piperidin-4-yl)-3,4-dihydropyrido[2,3-b]pyrazin-2(1H)-one] yielded an IC50 [1] of 19 nM, an IC50 (CHL-1 cells) of 22 nM and an IC50 (MOLM-13 cells) of 10 nM. It also gave an IC50 (B16F10 cells) of 147 nM.

With `C[C@@H]1C(=O)N(C)c2ccc(Nc3cccc(S(C)(=O)=O)c3)nc2N1C1CCN(C)CC1` [Example 11, (3R)-1,3-Dimethyl-4-(1-methylpiperidin-4-yl)-6-{[3-(methylsulphonyl)phenyl]amino}-3,4-dihydropyrido[2,3-b]pyrazin-2(1H)-one] the IC50 [1] was 94 nM, the IC50 (CHL-1 cells) was 109 nM and the IC50 (MOLM-13 cells) was 188 nM. The IC50 (B16F10 cells) was 445 nM.

`COc1ccc(S(=O)(=O)C(F)(F)F)cc1Nc1ccc2c(n1)N(C1CCN(C)CC1)[C@H](C)C(=O)N2C` [Example 21, (3R)-6-({2-Methoxy-5-[(trifluoromethyl)sulphonyl]phenyl}amino)-1,3-dimethyl-4-(1-methylpiperidin-4-yl)-3,4-dihydropyrido[2,3-b]pyrazin-2(1H)-one] was tested, and the IC50 [1] was 23 nM, the IC50 (CHL-1 cells) was 16 nM and the IC50 (MOLM-13 cells) was 16 nM. The IC50 (B16F10 cells) was 52 nM.

In the case of `CC(C)S(=O)(=O)c1ccc(OC(F)(F)F)c(Nc2ccc3c(n2)N(C2CCOCC2)[C@H](C)C(=O)N3C)c1` [Example 38, (3R)-6-{[5-(Isopropylsulphonyl)-2-(trifluoromethoxy)phenyl]amino}-1,3-dimethyl-4-(tetrahydro-2H-pyran-4-yl)-3,4-dihydropyrido[2,3-b]pyrazin-2(1H)-one], the IC50 [1] is reported as 45 nM, the IC50 (CHL-1 cells) is reported as 24 nM and the IC50 (MOLM-13 cells) is reported as 32 nM. The IC50 (B16F10 cells) was 16 nM.

With `COc1ccc(S(=O)(=O)C(C)C)cc1Nc1ccc2c(n1)N(C1CCN(C)CC1)[C@H](C)C(=O)N2C` [Example 13, (3R)-6-{[5-(Isopropylsulphonyl)-2-methoxyphenyl]amino}-1,3-dimethyl-4-(1-methylpiperidin-4-yl)-3,4-dihydropyrido[2,3-b]pyrazin-2(1H)-one] the IC50 [1] was 16 nM, the IC50 (CHL-1 cells) was 11 nM and the IC50 (MOLM-13 cells) was 15 nM. For the same compound, the IC50 (B16F10 cells) was 59 nM.
